Test results reported in publication PMC4338435, “Design and Application of a Novel High-throughput Screening Technique for 1-Deoxynojirimycin” (Scientific Reports, 2015).

Experiments:
LacS [1] = biological target: T1, LacS (Saccharolobus solfataricus, UniProt P22498); experiment: blue-white colony assay on LB agar, E. coli BWLacS; format: cell-based; parameters: lacS also integrated in E. coli BW25113 (BWLacS); settings: 40 μg/mL X-GAL, 1 mM L-arabinose
T1 sequence (P22498 1-489): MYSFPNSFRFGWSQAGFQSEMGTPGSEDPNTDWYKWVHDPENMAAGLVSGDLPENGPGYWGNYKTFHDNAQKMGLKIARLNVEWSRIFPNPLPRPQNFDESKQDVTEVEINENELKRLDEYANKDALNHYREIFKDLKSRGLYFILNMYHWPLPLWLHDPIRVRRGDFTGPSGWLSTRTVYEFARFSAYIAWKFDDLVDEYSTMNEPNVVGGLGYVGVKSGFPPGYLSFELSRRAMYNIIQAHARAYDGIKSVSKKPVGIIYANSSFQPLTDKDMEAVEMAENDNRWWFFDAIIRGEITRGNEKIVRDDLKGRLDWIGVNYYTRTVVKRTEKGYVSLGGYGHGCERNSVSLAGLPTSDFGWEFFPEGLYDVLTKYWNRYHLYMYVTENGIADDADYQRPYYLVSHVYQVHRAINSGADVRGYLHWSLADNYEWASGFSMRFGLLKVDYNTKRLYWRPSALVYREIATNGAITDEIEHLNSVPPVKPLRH

LacS [2] = biological target: T1, LacS; experiment: inhibition of oNPG hydrolysis, A420; format: biochemical; parameters: recombinant full-length LacS; purified for in vitro assay; lacS also integrated in E. coli BW25113 (BWLacS); settings: buffer Z, oNPG substrate, 37°C, 10 min

For OC[C@H]1O[C@@H](Oc2c[nH]c3ccc(Br)c(Cl)c23)[C@H](O)[C@@H](O)[C@H]1O [X-GAL], the “blue-white colony assay on LB agar, E. coli BWLacS” value (LacS [1]) was “inhibitory effect of 1-DNJ on the LacS activity toward 5-bromo-4-chloro-3-indolyl β-D-galactopyranoside (X-GAL)”.
In the case of OC[C@H]1NC[C@H](O)[C@@H](O)[C@@H]1O [1-DNJ], the LacS inhibition rate (LacS [2]) is reported as 1-DNJ was found able to inhibit LacS on its o-nitrophenyl-β-D-galactopyranoside (oNPG) hydrolysis activity.
In the case of OC[C@H]1NC(O)[C@@H](O)[C@@H](O)[C@@H]1O (stereo partly drawn) [MJ], the LacS inhibition rate (LacS [2]; unstable MJ tested as reaction mixture of purified GutB1 with ADM and NAD+, not isolated) is reported as “MJ was also found to inhibit the activity of LacS (Figure S3)”.
